Data reported in patent US20240350522A1, “HYGROMYCIN A FOR TREATMENT OF DISEASES AND INFECTIONS” (FLIGHTPATH BIOSCIENCES, INC., priority 2021, published 2024).
Where two headings read alike, the source gives them in different places.

Legend:
Assay type in all cases: cell-based
Treponema denticola [1] = experiment: MIC of Hyg A against Treponema denticola strains (broth dilution, phenol red); conditions: for MIC: Treponema denticola
[2] = system: Streptococcus salivarius ATCC13419; experiment: MIC of Hyg A against S. salivarius
[3] = system: Fusobacterium nucleatum (ATCC 25586); experiment: MIC of Hyg A against F. nucleatum ATCC 25586; conditions: ATCC25586
[4] = system: Parvimonas micra (ATCC 33270); experiment: MIC of Hyg A against P. micra; conditions: ATCC33270
[5] = system: Porphyromonas gingivalis (ATCC 33277); experiment: MIC of Hyg A against P. gingivalis (OD600, dark field microscopy)
Treponema denticola [6] = experiment: MBC of Hyg A against Treponema denticola strains; conditions: for MBC: Treponema denticola

**Q.** With `CC(=O)[C@H]1O[C@@H](Oc2ccc(/C=C(\C)C(=O)N[C@@H]3[C@H](O)[C@@H](O)[C@H]4OCO[C@H]4[C@@H]3O)cc2O)[C@@H](O)[C@@H]1O` [Hyg A, Hygromycin A] as the compound, how does the MIC (Treponema denticola [1]; ATCC35404, ATCC 35404, strain most tolerant, read-out: MIC) read?
**A.** 5 µg/mL

**Q.** And the MIC (Treponema denticola [1]; ATCC35404, ATCC strain 35404, range, read-out: MIC)?
**A.** 0.5 to 5 µg/mL

**Q.** What about the MIC (Treponema denticola [1]; ATCC35405, Type strain ATCC 35405, read-out: MIC) of the same compound?
**A.** 0.2 µg/mL

**Q.** What about the MIC (Treponema denticola [1]; T. denticola 33520, experiment 1, read-out: MIC (μg/ml) 1) of the same compound?
**A.** 1 µg/mL

**Q.** What about the MIC (Treponema denticola [1]; T. denticola 33520, experiment 2, read-out: MIC (μg/ml) 2) of the same compound?
**A.** 1 µg/mL

**Q.** What about the MIC (Treponema denticola [1]; T. denticola 33521, experiment 1, read-out: MIC (μg/ml) 1) of the same compound?
**A.** 0.5 µg/mL

**Q.** And the MIC (Treponema denticola [1]; T. denticola 33521, experiment 2, read-out: MIC (μg/ml) 2)?
**A.** 2 µg/mL

**Q.** What about the MIC (Treponema denticola [1]; T. denticola 35404, experiment 1, read-out: MIC (μg/ml) 1) of the same compound?
**A.** 0.5 to 1 µg/mL

**Q.** And the MIC (Treponema denticola [1]; T. denticola 35404, experiment 2, read-out: MIC (μg/ml) 2)?
**A.** 5 µg/mL

**Q.** What about the MIC (Treponema denticola [1]; T. denticola 35405, experiment 1, read-out: MIC (μg/ml) 1) of the same compound?
**A.** 0.2 µg/mL

**Q.** And the MIC (Treponema denticola [1]; T. denticola 35405, experiment 2, read-out: MIC (μg/ml) 2)?
**A.** 0.2 µg/mL

**Q.** And the MIC (Treponema denticola [1]; T. denticola ASLM, experiment 1, read-out: MIC (μg/ml) 1)?
**A.** 0.5 µg/mL

**Q.** What about the MIC (Treponema denticola [1]; T. denticola ASLM, experiment 2, read-out: MIC (μg/ml) 2) of the same compound?
**A.** 1 µg/mL

**Q.** And the MIC (Treponema denticola [1]; T. denticola H1-T, experiment 1, read-out: MIC (μg/ml) 1)?
**A.** 0.5 µg/mL

**Q.** What about the MIC (Treponema denticola [1]; T. denticola H1-T, experiment 2, read-out: MIC (μg/ml) 2) of the same compound?
**A.** 0.5 µg/mL

**Q.** What about the MIC (Treponema denticola [1]; T. denticola OTK, experiment 1, read-out: MIC (μg/ml) 1) of the same compound?
**A.** 0.5 µg/mL

**Q.** What about the MIC (Treponema denticola [1]; T. denticola OTK, experiment 2, read-out: MIC (μg/ml) 2) of the same compound?
**A.** 1 µg/mL

**Q.** What about the MIC (Treponema denticola [1]; T. denticola SP44, experiment 1, read-out: MIC (μg/ml) 1) of the same compound?
**A.** 1 µg/mL

**Q.** What about the MIC (Treponema denticola [1]; T. denticola SP44, experiment 2, read-out: MIC (μg/ml) 2) of the same compound?
**A.** 1 µg/mL

**Q.** And the MIC (Treponema denticola [1]; T. denticola US Trep, experiment 1, read-out: MIC (μg/ml) 1)?
**A.** 0.5 µg/mL

**Q.** And the MIC (Treponema denticola [1]; T. denticola US Trep, experiment 2, read-out: MIC (μg/ml) 2)?
**A.** 0.5 µg/mL

**Q.** What about the MIC (Treponema denticola [1]; across T. denticola strains, read-out: MIC values for Treponema denticola strains, typical) of the same compound?
**A.** ~0.5 µg/mL

**Q.** What about the MIC (Treponema denticola [1]; low passage clinical isolate ASLM, read-out: MIC (Hyg A sensitivity)) of the same compound?
**A.** 0.2 µg/mL

**Q.** And the MIC (Treponema denticola [1]; low passage clinical isolate SP44, read-out: MIC (Hyg A sensitivity))?
**A.** 1 µg/mL

**Q.** And the “MIC values for Treponema denticola strains, range” value (Treponema denticola [1]; across T. denticola strains)?
**A.** 0.2 to 1.0 µg/mL

**Q.** And the MIC ([2]; Streptococcus salivarius ATCC13419, read-out: MIC)?
**A.** 10 µg/mL

**Q.** And the MIC ([2]; Streptococcus salivarius, ATCC13419, 96 h, S. salivarius, 5% CO2, extended incubation (4 days), read-out: MIC)?
**A.** 20 µg/mL

**Q.** What about the MIC ([2]; Streptococcus salivarius, ATCC13419, S. salivarius 13419, experiment 1, read-out: MIC (μg/ml) 1) of the same compound?
**A.** 10 µg/mL

**Q.** And the MIC ([2]; Streptococcus salivarius, ATCC13419, S. salivarius 13419, experiment 2, read-out: MIC (μg/ml) 2)?
**A.** 10 µg/mL

**Q.** And the MIC ([2]; Streptococcus salivarius, ATCC13419, S. salivarius, 5% CO2, 24 hours incubation, read-out: MIC)?
**A.** 10 µg/mL

**Q.** And the MIC ([3]; Fusobacterium nucleatum ATCC 25586, read-out: MIC)?
**A.** ~1 µg/mL

**Q.** What about the MIC ([3]; Fusobacterium nucleatum, F. nucleatum 25586, experiment 1, read-out: MIC (μg/ml) 1) of the same compound?
**A.** 1 µg/mL

**Q.** What about the MIC ([3]; Fusobacterium nucleatum, F. nucleatum 25586, experiment 2, read-out: MIC (μg/ml) 2) of the same compound?
**A.** 1 µg/mL

**Q.** And the MIC ([4]; Parvimonas micra ATCC 33270, read-out: MIC)?
**A.** 2 µg/mL

**Q.** What about the MIC ([4]; Parvimonas micra, P. micra 33270, experiment 1, read-out: MIC (μg/ml) 1) of the same compound?
**A.** 2 µg/mL

**Q.** What about the MIC ([4]; Parvimonas micra, P. micra 33270, experiment 2, read-out: MIC (μg/ml) 2) of the same compound?
**A.** 2 µg/mL

**Q.** And the MIC ([5]; ATCC33277, P. gingivalis 33277, experiment 1, read-out: MIC (μg/ml) 1)?
**A.** 5 µg/mL

**Q.** And the MIC ([5]; ATCC33277, P. gingivalis 33277, experiment 2, read-out: MIC (μg/ml) 2)?
**A.** 5 µg/mL

**Q.** What about the “MIC:MBC ratio” value (Treponema denticola [6]; T. denticola 33520) of the same compound?
**A.** 0.2-1.0

**Q.** What about the “MIC:MBC ratio” value (Treponema denticola [6]; T. denticola 33521) of the same compound?
**A.** 0.3-1.0

**Q.** What about the “MIC:MBC ratio” value (Treponema denticola [6]; T. denticola 35404) of the same compound?
**A.** 0.1-1.0

**Q.** And the “MIC:MBC ratio” value (Treponema denticola [6]; T. denticola 35405)?
**A.** 0.2-0.4

**Q.** And the “MIC:MBC ratio” value (Treponema denticola [6]; T. denticola ASLM)?
**A.** 0.5-1.0

**Q.** And the “MIC:MBC ratio” value (Treponema denticola [6]; T. denticola H1-T)?
**A.** 1.0

**Q.** And the “MIC:MBC ratio” value (Treponema denticola [6]; T. denticola OTK)?
**A.** 0.5-1.0

**Q.** And the “MIC:MBC ratio” value (Treponema denticola [6]; T. denticola SP44)?
**A.** 0.5-2.0

**Q.** And the “MIC:MBC ratio” value (Treponema denticola [6]; T. denticola US Trep)?
**A.** 0.5

**Q.** And the “type of effect (bactericidal/bacteriostatic)” value (Treponema denticola [6]; T. denticola strains, from MBC/MIC ratio)?
**A.** bactericidal

**Q.** And the MBC (Treponema denticola [6]; ATCC35404, ATCC 35404, strain most tolerant, read-out: MBC)?
**A.** 5 µg/mL

**Q.** And the MBC (Treponema denticola [6]; T. denticola 33520, experiment 1, read-out: MBC (μg/ml) 1)?
**A.** 5 µg/mL

**Q.** And the MBC (Treponema denticola [6]; T. denticola 33520, experiment 2, read-out: MBC (μg/ml) 2)?
**A.** 1 µg/mL

**Q.** What about the MBC (Treponema denticola [6]; T. denticola 33521, experiment 1, read-out: MBC (μg/ml) 1) of the same compound?
**A.** 0.5 µg/mL

**Q.** And the MBC (Treponema denticola [6]; T. denticola 33521, experiment 2, read-out: MBC (μg/ml) 2)?
**A.** 2 µg/mL

**Q.** What about the MBC (Treponema denticola [6]; T. denticola 35404, experiment 1, read-out: MBC (μg/ml) 1) of the same compound?
**A.** 5 µg/mL

**Q.** And the MBC (Treponema denticola [6]; T. denticola 35404, experiment 2, read-out: MBC (μg/ml) 2)?
**A.** > 5 µg/mL

**Q.** And the MBC (Treponema denticola [6]; T. denticola 35405, experiment 1, read-out: MBC (μg/ml) 1)?
**A.** 1 µg/mL

**Q.** What about the MBC (Treponema denticola [6]; T. denticola 35405, experiment 2, read-out: MBC (μg/ml) 2) of the same compound?
**A.** 0.5 µg/mL

**Q.** What about the MBC (Treponema denticola [6]; T. denticola ASLM, experiment 1, read-out: MBC (μg/ml) 1) of the same compound?
**A.** 1 µg/mL

**Q.** What about the MBC (Treponema denticola [6]; T. denticola ASLM, experiment 2, read-out: MBC (μg/ml) 2) of the same compound?
**A.** 1 µg/mL

**Q.** And the MBC (Treponema denticola [6]; T. denticola H1-T, experiment 1, read-out: MBC (μg/ml) 1)?
**A.** 0.5 µg/mL

**Q.** What about the MBC (Treponema denticola [6]; T. denticola H1-T, experiment 2, read-out: MBC (μg/ml) 2) of the same compound?
**A.** 0.5 µg/mL

**Q.** What about the MBC (Treponema denticola [6]; T. denticola OTK, experiment 1, read-out: MBC (μg/ml) 1) of the same compound?
**A.** 1 µg/mL
